In ChEMBL document CHEMBL4414660, “Effect of Modifier Structure on the Activation of Leukotriene A4 Hydrolase Aminopeptidase Activity” (J Med Chem, 2019):

Columns and labels:
[1] = biological target: T1, Leukotriene A-4 hydrolase (Homo sapiens, UniProt P09960); assay: Activation of N-terminal (His)6 and Xpress-tagged LTA4H (unknown origin) expressed in Escherichia coli BL21(DE3) cells assessed as increase in aminopeptidase activity by measuring p-nitroanilide release using L-Alanine-p-nitroanilide incubated for 10 mins by UV plate reader based assay
T1 sequence (P09960 whole entry): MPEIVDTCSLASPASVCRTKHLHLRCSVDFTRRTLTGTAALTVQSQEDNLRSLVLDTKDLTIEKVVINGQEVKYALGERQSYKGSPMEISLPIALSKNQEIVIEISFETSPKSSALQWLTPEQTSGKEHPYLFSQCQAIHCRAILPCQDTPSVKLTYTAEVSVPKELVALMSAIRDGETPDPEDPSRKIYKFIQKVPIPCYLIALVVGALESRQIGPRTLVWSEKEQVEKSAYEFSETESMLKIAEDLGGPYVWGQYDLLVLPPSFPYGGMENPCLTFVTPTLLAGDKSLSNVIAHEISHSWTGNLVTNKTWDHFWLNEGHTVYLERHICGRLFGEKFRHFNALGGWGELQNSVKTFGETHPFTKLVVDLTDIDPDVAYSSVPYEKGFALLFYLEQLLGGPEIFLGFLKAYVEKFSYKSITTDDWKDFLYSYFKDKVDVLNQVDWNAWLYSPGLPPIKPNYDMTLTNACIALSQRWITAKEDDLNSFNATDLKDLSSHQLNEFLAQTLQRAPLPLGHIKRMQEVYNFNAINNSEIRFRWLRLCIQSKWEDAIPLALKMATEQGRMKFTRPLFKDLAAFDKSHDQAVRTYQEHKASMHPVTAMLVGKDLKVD

[2] = biological target: T2, Leukotriene A-4 hydrolase (Homo sapiens) (UniProt P09960); assay: (§1) Activation of N-terminal (His)6 and Xpress-tagged LTA4H (unknown origin) expressed in Escherichia coli BL21(DE3) cells assessed as increase in aminopeptidase activity by measuring dissociation constant (KX) for hyperbolic mixed predominantly catalytic activation using L-Alanine-p-nitroanilide incubated for 10 mins by p-nitroanilide release detection based UV plate reader based assay
T2 sequence (whole entry): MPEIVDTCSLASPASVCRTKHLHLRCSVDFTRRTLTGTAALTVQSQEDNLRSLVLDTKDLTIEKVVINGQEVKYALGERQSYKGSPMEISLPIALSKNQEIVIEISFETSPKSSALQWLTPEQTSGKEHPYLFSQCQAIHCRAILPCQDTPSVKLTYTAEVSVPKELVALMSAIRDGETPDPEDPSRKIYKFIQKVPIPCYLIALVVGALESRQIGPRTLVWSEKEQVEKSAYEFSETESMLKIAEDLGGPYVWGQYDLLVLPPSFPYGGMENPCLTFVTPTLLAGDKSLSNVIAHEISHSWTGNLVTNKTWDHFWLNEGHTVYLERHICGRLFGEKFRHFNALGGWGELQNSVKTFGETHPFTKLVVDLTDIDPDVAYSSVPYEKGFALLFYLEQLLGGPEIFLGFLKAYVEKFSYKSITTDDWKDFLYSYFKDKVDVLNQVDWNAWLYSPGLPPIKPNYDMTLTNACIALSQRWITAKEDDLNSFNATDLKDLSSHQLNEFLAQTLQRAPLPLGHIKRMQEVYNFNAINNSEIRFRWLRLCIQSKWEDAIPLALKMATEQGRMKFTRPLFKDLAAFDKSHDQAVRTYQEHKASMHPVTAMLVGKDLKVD

[3] = biological target: T2, Leukotriene A-4 hydrolase (Homo sapiens); assay: as §1, with “factor by which activator affects catalytic” for “dissociation”, “constant” for “constant (KX)”
[4] = biological target: T2, Leukotriene A-4 hydrolase (Homo sapiens); assay: as §1, with “reciprocal allosteric coupling” for “dissociation”, “constant” for “constant (KX)”
[5] = biological target: T1, Leukotriene A-4 hydrolase; assay: (§2) Inhibition of N-terminal (His)6 and Xpress-tagged LTA4H (unknown origin) expressed in Escherichia coli BL21(DE3) cells assessed as reduction in aminopeptidase activity by measuring p-nitroanilide release using L-arginine-p-nitroanilide incubated for 10 mins by UV plate reader based assay
[6] = biological target: T2, Leukotriene A-4 hydrolase (Homo sapiens); assay: as §2
[7] = biological target: T2, Leukotriene A-4 hydrolase (Homo sapiens); assay: Inhibition of N-terminal (His)6 and Xpress-tagged LTA4H (unknown origin) expressed in Escherichia coli BL21(DE3) cells assessed as reduction in aminopeptidase activity by measuring PGP hydrolysis incubated for 30 mins
Neutrophil = assay: Inhibition of LTB4 production in A23187-stimulated human neutrophils at 0.001 to 1000 microM incubated for 30 mins by ELISA; type: functional, cell-based
[8] = biological target: T1, Leukotriene A-4 hydrolase; assay: Inhibition of N-terminal (His)6 and Xpress-tagged LTA4H (unknown origin) expressed in Escherichia coli BL21(DE3) cells assessed as reduction in aminopeptidase activity by measuring p-nitroanilide release using L-Alanine-p-nitroanilide incubated for 10 mins by UV plate reader based assay

Row | SMILES | AC50 [1] [nM] | K [2] [µM] | fold change (FC) [3] | K [4] | IC50 [5] [nM] | inhibition [6] | inhibition [7] | inhibition (Neutrophil) | IC50 [8] [nM]
1 | Cc1ccc(Cc2ccc(-c3csc(N)n3)cc2)cc1 | 83 | 0.1 | 18.7 | 1.64 |  |  |  |  | 
2 | Nc1nc(-c2ccc(Cc3cccc(C(F)(F)F)c3)cc2)cs1 | 69000 |  |  |  |  |  |  |  | 
3 | COc1ccc(Cc2ccccc2)cc1 | 4830 | 0.18 | 23.6 | 2.66 |  |  |  |  | 
4 | COc1ccc(Cc2ccc(-c3csc(N)n3)cc2)cc1 | 210 | 0.05 | 26.4 | 4.34 | 13900 | Dose-dependent effect | Dose-dependent effect | Dose-dependent effect | 
5 | Nc1nc(-c2ccc(Cc3ccccc3)cc2)cs1 | 240 | 1.35 | 25.4 | 0.82 |  |  |  |  | 
6 | COc1ccccc1Cc1ccc(-c2csc(N)n2)cc1 |  |  |  |  |  |  |  |  | 100
